pIC50: −log10 of the molar value.
Biological target: T1, Human KDR (Homo sapiens, UniProt P35968)
T1 construct: expressed in transfected cells; host or cells: NIH3T3 cells (mouse fibroblasts)
Assay: Inhibition of KDR phosphorylation in human KDR-transfected NIH3T3 cells (ELISA)
Assay type: cell-based
Settings: for Selection ratio (KDR phosphorylation IC50 / c-fms phosphorylation IC50): class 0-3; for pIC50: human KDR-transfected NIH3T3 cells, VEGF 100 ng/ml, ELISA, read-out: KDR phosphorylation 50% inhibitory concentration (IC50)
Method: Human KDR-transfected NIH3T3 cells (Sawano A et al., Cell Growth & Differentiation, 7, 213-221 (1996)) were cultured in a DMEM medium containing 10% fetal calf serum (purchased from GIBCO BRL) within a 5% carbon dioxide incubator until 50 to 70% confluent. The harvested cells were seeded into wells, containing the same medium, in a collagen type 1 coat 96-well flat-bottom plate in an amount of 1.5×10^4 per well, and cultured at 37° C. overnight. The medium was replaced with a 0.1% fetal calf serum-containing DMEM medium. The test compound dissolved in dimethyl sulfoxide was added to each well, and the cultivation was continued at 37° C. for additional one hr. A human recombinant vascular endothelial growth factor (hereinafter abbreviated to “VEGF”) was added to a final concentration of 100 ng/ml, followed by stimulation of cells at 37° C. for 2 min. The medium was removed, and the cells were washed with phosphate buffered saline (pH 7.4). A solubilization buffer (50 μl) (20 mM HEPES (pH 7.4), 150 mM NaCl, 0.2% Triton X-100, 10% glycerol, 5 mM sodium orthovanadylate, 5 mM disodium ethylenediaminetetraacetate, and 2 mM Na4P2O7) was then added thereto. The mixture was shaken at 4° C. for 2 hr to prepare a cell extract.
Separately, phosphate buffered saline (50 μl, pH 7.4) containing 5 μg/ml of anti-phospho-tyrosine antibody (PY20; purchased from Transduction Laboratories) was added to a microplate for ELISA (Maxisorp; purchased from NUNC), followed by standing at 4° C. overnight to be immobilized on the wells. After washing of the plate, 300 μl of a blocking solution was added, followed by standing at room temperature for 2 hr to perform blocking. After washing, the whole cell extract was transferred and was allowed to stand at 4° C. overnight. After washing, an anti-KDR antibody (purchased from Santa Cruz Biotechnology) was allowed to react at room temperature for one hr. Further, after washing, a peroxidase-labeled anti-rabbit Ig antibody (purchased from Amersham) was allowed to react at room temperature for one hr. After washing, a chromophoric substrate for peroxidase (purchased from Sumitomo Bakelite Co., Ltd.) was added thereto to initiate a reaction. After a suitable level of color development, a reaction termination solution was added to stop the reaction, and the absorbance at 450 nm was measured with a microplate reader. The KDR phosphorylation activity for each well was determined by presuming the absorbance without the addition of the test compound and with the addition of VEGF to be 100% KDR phosphorylation activity and the absorbance without the addition of the test compound and VEGF to be 0% KDR phosphorylation activity. The concentration of the test compound was varied on several levels, the KDR phosphorylation inhibitory rate was determined for each case, and the concentration of the test compound necessary for inhibiting 50% of KDR phosphorylation (IC50) was calculated.

T1 sequence (P35968 20-1356): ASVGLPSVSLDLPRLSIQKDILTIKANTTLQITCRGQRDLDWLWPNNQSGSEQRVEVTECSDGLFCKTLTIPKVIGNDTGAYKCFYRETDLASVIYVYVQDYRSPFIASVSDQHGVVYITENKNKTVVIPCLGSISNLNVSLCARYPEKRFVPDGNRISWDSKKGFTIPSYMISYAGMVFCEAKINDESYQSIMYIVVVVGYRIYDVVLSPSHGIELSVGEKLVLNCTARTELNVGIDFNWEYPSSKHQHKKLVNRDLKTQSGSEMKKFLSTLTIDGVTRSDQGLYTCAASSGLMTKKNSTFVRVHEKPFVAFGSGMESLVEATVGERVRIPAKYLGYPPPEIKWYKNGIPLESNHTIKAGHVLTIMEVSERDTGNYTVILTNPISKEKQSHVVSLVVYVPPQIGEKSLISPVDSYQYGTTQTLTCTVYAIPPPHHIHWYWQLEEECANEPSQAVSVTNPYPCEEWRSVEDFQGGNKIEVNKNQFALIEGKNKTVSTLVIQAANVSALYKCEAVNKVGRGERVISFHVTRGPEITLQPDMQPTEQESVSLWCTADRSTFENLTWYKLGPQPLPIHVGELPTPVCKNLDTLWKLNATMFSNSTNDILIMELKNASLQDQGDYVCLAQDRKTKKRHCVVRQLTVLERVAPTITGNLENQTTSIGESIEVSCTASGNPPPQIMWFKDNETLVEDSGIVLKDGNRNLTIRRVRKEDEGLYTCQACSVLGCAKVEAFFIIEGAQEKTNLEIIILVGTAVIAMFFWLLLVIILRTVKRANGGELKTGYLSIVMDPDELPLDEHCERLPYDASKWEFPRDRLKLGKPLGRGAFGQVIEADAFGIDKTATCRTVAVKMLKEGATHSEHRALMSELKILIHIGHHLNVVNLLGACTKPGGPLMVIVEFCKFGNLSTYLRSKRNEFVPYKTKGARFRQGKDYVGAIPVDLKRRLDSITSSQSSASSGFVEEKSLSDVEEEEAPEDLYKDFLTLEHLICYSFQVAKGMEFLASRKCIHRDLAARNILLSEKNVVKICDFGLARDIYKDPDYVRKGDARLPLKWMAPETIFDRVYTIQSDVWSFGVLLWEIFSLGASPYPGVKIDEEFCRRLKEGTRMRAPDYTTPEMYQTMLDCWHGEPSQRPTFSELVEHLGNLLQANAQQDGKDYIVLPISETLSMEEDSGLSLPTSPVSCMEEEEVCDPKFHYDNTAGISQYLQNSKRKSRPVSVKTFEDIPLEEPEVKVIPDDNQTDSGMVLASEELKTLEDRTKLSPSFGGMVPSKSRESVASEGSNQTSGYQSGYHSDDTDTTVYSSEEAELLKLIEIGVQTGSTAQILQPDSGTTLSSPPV

Structure (SMILES) | pIC50 | Selection ratio (KDR phosphorylation IC50 / c-fms phosphorylation IC50)
COc1cc2nccc(Oc3ccc(NC(=O)NC(C)c4ccc(F)cc4)c(Cl)c3)c2cc1OC (stereo not shown) [Example 4, N-{2-Chloro-4-[(6,7-dimethoxy-4-quinolyl)oxy]phenyl}-N′-[1-(4-fluorophenyl)ethyl]urea] | 9.00 | 0 (KDR phosphorylation 50% inhibitory concentration [μM]/c-fms phosphorylation 50% inhibitory concentration [μM] was less than 5)
COc1cc2nccc(Oc3ccc(NC(=O)N[C@@H](C)c4ccc(F)cc4)c(Cl)c3)c2cc1OC [Example 5, N-{2-Chloro-4-[(6,7-dimethoxy-4-quinolyl)oxy]phenyl}-N′-[(1S)-1-(4-fluorophenyl)ethyl]urea] | 7.67 | 1 (when the value was 5 or more)
COc1cc2nccc(Oc3ccc(NC(=O)N[C@H](C)c4ccc(F)cc4)c(Cl)c3)c2cc1OC [Example 6, N-{2-Chloro-4-[(6,7-dimethoxy-4-quinolyl)oxy]phenyl}-N′-[(1R)-1-(4-fluorophenyl)ethyl]urea] | 8.74 | 0 (KDR phosphorylation 50% inhibitory concentration [μM]/c-fms phosphorylation 50% inhibitory concentration [μM] was less than 5)
COc1cc2nccc(Oc3cc(C)c(NC(=O)NC(C)c4ccc(F)cc4)cc3C)c2cc1OC (stereo not shown) [Example 7, N-{4-[(6,7-Dimethoxy-4-quinolyl)oxy]-2,5-dimethylphenyl}-N′-[1-(4-fluorophenyl)ethyl]urea] | 8.51 | 0 (KDR phosphorylation 50% inhibitory concentration [μM]/c-fms phosphorylation 50% inhibitory concentration [μM] was less than 5)
COc1cc2nccc(Oc3cc(C)c(NC(=O)N[C@H](C)c4ccc(F)cc4)cc3C)c2cc1OC [Example 9, N-{4-[(6,7-Dimethoxy-4-quinolyl)oxy]-2,5-dimethylphenyl}-N′-[(1R)-1-(4-fluorophenyl)ethyl]urea] | 8.57 | 0 (KDR phosphorylation 50% inhibitory concentration [μM]/c-fms phosphorylation 50% inhibitory concentration [μM] was less than 5)
COc1cc2nccc(Oc3ccc(NC(=O)NC(C)c4ccc(F)cc4)cc3Cl)c2cc1OC (stereo not shown) [Example 10, N-{3-Chloro-4-[(6,7-dimethoxy-4-quinolyl)oxy]phenyl}-N′-[1-(4-fluorophenyl)ethyl]urea] | 8.52 | 0 (KDR phosphorylation 50% inhibitory concentration [μM]/c-fms phosphorylation 50% inhibitory concentration [μM] was less than 5)
COc1cc2nccc(Oc3ccc(NC(=O)N[C@@H](C)c4ccc(F)cc4)cc3Cl)c2cc1OC [Example 11, N-{3-Chloro-4-[(6,7-dimethoxy-4-quinolyl)oxy]phenyl}-N′-[(1S)-1-(4-fluorophenyl)ethyl]urea] | 6.91 | 2 (when the value was 10 or more)
COc1cc2nccc(Oc3ccc(NC(=O)N[C@H](C)c4ccc(F)cc4)cc3Cl)c2cc1OC [Example 12, N-{3-Chloro-4-[(6,7-dimethoxy-4-quinolyl)oxy]phenyl}-N′-[(1R)-1-(4-fluorophenyl)ethyl]urea] | 8.55 | 0 (KDR phosphorylation 50% inhibitory concentration [μM]/c-fms phosphorylation 50% inhibitory concentration [μM] was less than 5)
COc1cc2nccc(Oc3ccc(NC(=O)NC(C)c4ccc(F)cc4)c(C)c3)c2cc1OC (stereo not shown) [Example 13, N-{4-[(6,7-Dimethoxy-4-quinolyl)oxy]-2-methylphenyl}-N′-[1-(4-fluorophenyl)ethyl]urea] | > 9.00 | 0 (KDR phosphorylation 50% inhibitory concentration [μM]/c-fms phosphorylation 50% inhibitory concentration [μM] was less than 5)
COc1cc2nccc(Oc3ccc(NC(=O)N[C@@H](C)c4ccc(F)cc4)c(C)c3)c2cc1OC [Example 14, N-{4-[(6,7-Dimethoxy-4-quinolyl)oxy]-2-methylphenyl}-N′-[(1S)-1-(4-fluorophenyl)ethyl]urea] | 7.16 | 1 (when the value was 5 or more)
COc1cc2nccc(Oc3ccc(NC(=O)NC(C)c4ccc(F)cc4)c(C(F)(F)F)c3)c2cc1OC (stereo not shown) [Example 19, N-[4-[(6,7-Dimethoxy-4-quinolyl)oxy]-2-(trifluoromethyl)phenyl]-N′-[1-(4-fluorophenyl)ethyl]urea] | 8.82 | 0 (KDR phosphorylation 50% inhibitory concentration [μM]/c-fms phosphorylation 50% inhibitory concentration [μM] was less than 5)
COc1cc2nccc(Oc3ccc(NC(=O)NC(C)c4ccc(F)cc4)cc3OC)c2cc1OC (stereo not shown) [Example 22, N-{4-[(6,7-Dimethoxy-4-quinolyl)oxy]-3-methoxyphenyl}-N′-[1-(4-fluorophenyl)ethyl]urea] | 8.41 | 0 (KDR phosphorylation 50% inhibitory concentration [μM]/c-fms phosphorylation 50% inhibitory concentration [μM] was less than 5)
COc1cc2nccc(Oc3ccc(NC(=O)N[C@@H](C)c4ccc(F)cc4)cc3OC)c2cc1OC [Example 23, N-{4-[(6,7-Dimethoxy-4-quinolyl)oxy]-3-methoxyphenyl}-N′-[(1S)-1-(4-fluorophenyl)ethyl]urea] | 6.22 | 3 (when the value was 50 or more)

More lines, main results first:

pIC50 | Structure (SMILES) | Selection ratio (KDR phosphorylation IC50 / c-fms phosphorylation IC50)
8.96 | COc1cc2nccc(Oc3ccc(NC(=O)NC(C)c4ccc(F)cc4)cc3)c2cc1OC (stereo not shown) [Example 1, N-{4-[(6,7-Dimethoxy-4-quinolyl)oxy]phenyl}-N′-[1-(4-fluorophenyl)ethyl]urea] | 0 (KDR phosphorylation 50% inhibitory concentration [μM]/c-fms phosphorylation 50% inhibitory concentration [μM] was less than 5)
6.41 | COc1cc2nccc(Oc3cc(C)c(NC(=O)N[C@@H](C)c4ccc(F)cc4)cc3C)c2cc1OC [Example 8, N-{4-[(6,7-Dimethoxy-4-quinolyl)oxy]-2,5-dimethylphenyl}-N′-[(1S)-1-(4-fluorophenyl)ethyl]urea] | 2 (when the value was 10 or more)
> 9.00 | COc1cc2nccc(Oc3ccc(NC(=O)N[C@H](C)c4ccc(F)cc4)c(C)c3)c2cc1OC [Example 15, N-{4-[(6,7-Dimethoxy-4-quinolyl)oxy]-2-methylphenyl}-N′-[(1R)-1-(4-fluorophenyl)ethyl]urea] | 0 (KDR phosphorylation 50% inhibitory concentration [μM]/c-fms phosphorylation 50% inhibitory concentration [μM] was less than 5)
8.51 | COc1cc(Oc2ccnc3cc(OC)c(OC)cc23)ccc1NC(=O)NC(C)c1ccc(F)cc1 (stereo not shown) [Example 16, N-{4-[(6,7-Dimethoxy-4-quinolyl)oxy]-2-methoxyphenyl}-N′-[1-(4-fluorophenyl)ethyl]urea] | 0 (KDR phosphorylation 50% inhibitory concentration [μM]/c-fms phosphorylation 50% inhibitory concentration [μM] was less than 5)
6.84 | COc1cc2nccc(Oc3ccc(NC(=O)N[C@@H](C)c4ccc(F)cc4)c(C(F)(F)F)c3)c2cc1OC [Example 20, N-[4-[(6,7-Dimethoxy-4-quinolyl)oxy]-2-(trifluoromethyl)phenyl]-N′-[(1S)-1-(4-fluorophenyl)ethyl]urea] | 2 (when the value was 10 or more)
8.68 | COc1cc2nccc(Oc3ccc(NC(=O)N[C@H](C)c4ccc(F)cc4)c(C(F)(F)F)c3)c2cc1OC [Example 21, N-[4-[(6,7-Dimethoxy-4-quinolyl)oxy]-2-(trifluoromethyl)phenyl]-N′-[(1R)-1-(4-fluorophenyl)ethyl]urea] | 0 (KDR phosphorylation 50% inhibitory concentration [μM]/c-fms phosphorylation 50% inhibitory concentration [μM] was less than 5)
8.62 | COc1cc2nccc(Oc3ccc(NC(=O)N[C@H](C)c4ccc(F)cc4)cc3OC)c2cc1OC [Example 24, N-{4-[(6,7-Dimethoxy-4-quinolyl)oxy]-3-methoxyphenyl}-N′-[(1R)-1-(4-fluorophenyl)ethyl]urea] | 0 (KDR phosphorylation 50% inhibitory concentration [μM]/c-fms phosphorylation 50% inhibitory concentration [μM] was less than 5)
